Key:
[1] = system: NHDF (normal human dermal fibroblasts); assay: MTT cytotoxicity assay, NHDF control cells, 72 h; assay type: cell-based; conditions: free compound in DMSO
Experimental: (§1) In vitro cell culture procedures were performed under aseptic conditions and cultures were maintained in an Innova CO-180 incubator (New Brunswick Scientific, Edison, NJ, USA). Pancreatic cancer cells, namely, BxPC-3 (primary pancreatic tumor) and AsPC-1 (from ascites of a patient with pancreatic cancer) cells, were cultured in RPMI-1640 medium supplemented with 10% heat inactivated fetal bovine serum (FBS), GlutaMAX™ and antibiotic-antimycotic. NHDF cells were cultured in alpha-MEM medium supplemented with 10% heat-inactivated FBS, GlutaMAX™ and antibiotic-antimycotic. Culture was carried out at 37 °C in a humidified atmosphere containing 5% CO2.
(§2) The effect of CA and its derivatives on cell viability was determined using a quantitative colorimetric MTT assay adapted from Mosmann. Cells were seeded in 96-well plates (5 × 10^3/well), in appropriate complete cell culture medium, for 24 h. The cells were treated with caffeic acid derivatives (in the range of 18.75–150 μM), DMSO (an equivalent volume of DMSO was used as a negative control, maximal concentration was 0.4% v/v) or liposomal formulations for 72 h. The medium containing tested chemicals was removed and MTT solution (working solution: stock 0.5 mg/mL was 10 times diluted in medium) was added to the wells, and the plates were incubated for a further 3 h. Subsequently, the MTT solution was replaced with DMSO (50 μL/well) to dissolve the purple formazan crystals. Absorbance was measured at 560 nm with a reference wavelength of 670 nm on an Asys UVM 340 Microplate Reader (Cambridge, UK). Results were expressed as the percentage of surviving cells, with respect to the control (the untreated cells) calculated as: Cell Viability (%) = (AT/AC) × 100(2) where: • AT = Absorbance of the treatment well (treated cells); • AC = Absorbance of the control well (not treated cells).
(§3) IC50 values were calculated using GraphPad Prism for Windows (GraphPad Software, La Jolla, CA, USA). The degree of selectivity of the CA derivatives against pancreatic cancer cells was expressed by the selectivity index (SI) where: SI = IC50 normal cells/IC50 cancer cells(3)
(§4) The purpose of this study was to obtain a preliminary insight into the anticancer activity of a series of caffeic acid derivatives. In order to determine the in vitro cytotoxicity of the resynthesized compounds, the activity of CA and twelve derivatives (Table 1), were screened against two human PC cell lines, BxPC3 and AsPC1, derived from primary and metastatic tumors, respectively. Since we were also interested in evaluating the degree of selectivity of the synthetized derivatives, we decided to use normal human dermal fibroblasts as control, healthy, cells. This made it possible to determine the specificity of the tested substances, in terms of their selectivity index towards pancreatic cancer cells. The cytotoxicity of the examined compounds was estimated using the classic MTT assay, which is based on the detection of the activity of oxidoreductive enzymes (mainly mitochondrial succinate dehydrogenase), which are present only in living, metabolically active cells. During the experiments, cells were incubated for 72 h in the presence of increasing concentrations of CA and the series of CA derivatives, in the range of 18.75–150 μM. […] Untreated cells were tested as the control group.

[2] = system: BxPC3 pancreatic cancer cells; assay: MTT cytotoxicity assay, BxPC3 cells, 72 h; assay type: cell-based, human; conditions: for IC50: Homo sapiens, BXPC-3, free compound in DMSO, MTT, 72 h; for BxPC3 SI: selectivity index = IC50 of NHDF/IC50 of BxPC3, free compound
Experimental: as §1, §2, §3, §4

[3] = system: AsPC1 pancreatic cancer cells; assay: MTT cytotoxicity assay, AsPC1 cells, 72 h; assay type: cell-based, human; conditions: for IC50: Homo sapiens, ASPC1, free compound in DMSO, MTT, 72 h; for AsPC1 SI: selectivity index = IC50 of NHDF/IC50 of AsPC1, free compound
Experimental: as §1, §2, §3, §4

[4] = system: MIAPACa-2 pancreatic cancer cell line; parameters: method as in PMID 26373299; conditions: 25 μg/mL (87 μM), 48 h incubation; cited from earlier work
[5] = system: PANC-1 pancreatic cancer cell line; parameters: method as in PMID 26373299; conditions: 25 μg/mL (87 μM), 48 h incubation; cited from earlier work
BxPC3 cells = system: BxPC3 cells; parameters: method as in PMID 18824880; conditions: 10 μg/mL (35 μM); cited from earlier work
[6] = Compound encapsulation efficiency (EE) in liposomes; assay type: physicochemical; conditions: SPC:DSPE-PEG2000 95:5 mol/mol liposomes
Experimental: Caffeic acid derivatives encapsulated liposomes were prepared using the dry lipid film and extrusion method. A 1 mL solution of 10 mg of total lipids in chloroform (SPC:DSPE-PEG2000 95:5 mol/mol) were mixed with 1 mg of caffeic acid esters in methanol. Subsequently, solvents were removed from the samples via evaporation under a stream of nitrogen-gas to form a homogeneous lipid film on the flask wall and dried for 2 h at low pressure using a Savant Modulyo lyophilizer (Thermo Fisher Scientific, Waltham, MA, USA). Then, the lipid film was suspended by addition of 1 mL of sterile normal saline (0.9% NaCl), with mixing, until it was completely hydrated. […]
The lipid concentration was determined by the Stewart assay. The amount of (7) was determined spectrophotometrically at 290 nm and was calculated from the appropriate calibration curve according to the method described previously:EE (%) = CAf(mg/mL)/Lf(mg/mL)/CAi(mg/mL)/Li(mg/mL) × 100(1) where CAi(mg/mL)/Li(mg/mL) represents the (caffeic acid derivate)-to-lipid ratio at the point when the compound was mixed with the liposomes, and CAf(mg/mL)/Lf(mg/mL) is the final (caffeic acid derivate)-to-lipid ratio of the liposomes.

Structure (SMILES)	IC50 [1] [µM]	IC50 [2] [µM]	IC50 [3] [µM]	Reduction of proliferation rate [4] [%]	Reduction of proliferation rate [5] [%]	Inhibition (BxPC3 cells) [%]	BxPC3 SI [2]	AsPC1 SI [3]	Encapsulation efficiency [6] [%]
COC(=O)/C=C/c1ccc(O)c(O)c1O [(5)]	98.8 ± 9.56	46.6 ± 3.47	42.5 ± 3.57	–	–	–	–	–	–
O=C(/C=C/c1ccc(O)c(O)c1)OCCc1ccccc1 [CAPE, caffeic acid phenethyl ester]	–	–	–	65.7	93.0	80.4	–	–	–
CC(=O)/C=C/c1cccc(O)c1 [(8)]	79.7 ± 6.3	30.5 ± 4.55	19.2 ± 0.72	–	–	–	2.61	4.14	–
CC(=O)/C=C/c1ccc(O)c(O)c1O [(11), 4-(2’, 3’, 4’-trihydroxyphenyl)-3 (E)-buten-2-one]	61.7 ± 10.5	21.7 ± 1.51	18.4 ± 0.74	–	–	–	2.84	3.36	–
CC(=O)/C=C/c1ccc(O)cc1 [(9)]	59.2 ± 11.6	28.1 ± 3.36	25.6 ± 2.17	–	–	–	2.11	2.31	–
CC(=O)/C=C/c1ccccc1O [Compound (7)]	61.1 ± 1.95	22.4 ± 2.52	18.7 ± 0.24	–	–	–	2.73	3.27	93
CC(=O)/C=C/c1ccc(O)cc1O [(10)]	54.6 ± 2.25	34.1 ± 1.74	35.3 ± 1.28	–	–	–	1.60	1.54	–
COc1cc(/C=C/C(C)=O)ccc1O [(12)]	51.5 ± 1.2	29.9 ± 5.13	38 ± 6.12	–	–	–	1.72	1.36	–

Source: paper PMC7766656, “Evaluation of the In Vitro Cytotoxic Activity of Caffeic Acid Derivatives and Liposomal Formulation against Pancreatic Cancer Cell Lines” (Materials, 2020)
